The values below come from ChEMBL document CHEMBL5325394, “What We Have Gained from Ibogaine: α3β4 Nicotinic Acetylcholine Receptor Inhibitors as Treatments for Substance Use Disorders” (J Med Chem, 2023).

Where a SMILES comes first, the peptide text is derived from it. Bridges are numbered along the chain shown (N, C = ends).

Test [1] addresses T1, Neuronal acetylcholine receptor; alpha3/beta4 (Homo sapiens, UniProt P30926+P32297). In words: Antagonist activity at nAChR alpha3beta4 in human SH-SY5Y cells assessed as increase in intracellular calcium level preincubated for 10 mins followed by nicotine addition measured after 30 mins by FLIPR assay. It is filed as cell-based. In general terms: Calcium flux is commonly read through the fluorescence of an indicator in the cells.

Test [2] concerns the target T2, Neuronal acetylcholine receptor subunit alpha-7 (Homo sapiens, UniProt P36544). In words: Antagonist activity at nAChR alpha7 in human SH-SY5Y cells assessed as increase in intracellular calcium level preincubated for 10 mins followed by choline addition measured after 30 mins by FLIPR assay. The class given is cell-based.
The target in test [3] is T2, Neuronal acetylcholine receptor subunit alpha-7. In words: Antagonist activity at alpha7 nAChRs in human SH-SY5Y cells assessed as increase in intracellular calcium level by FLIPR assay. The class given is cell-based.
Test [4] deals with T3, Neuronal acetylcholine receptor; alpha4/beta2 (Homo sapiens, UniProt P17787+P43681). In words: Antagonist activity at alpha4beta2 nAChRs (unknown origin) assessed as inhibition constant. It is filed as protein-complex assay.
T3 sequence (P17787 whole entry): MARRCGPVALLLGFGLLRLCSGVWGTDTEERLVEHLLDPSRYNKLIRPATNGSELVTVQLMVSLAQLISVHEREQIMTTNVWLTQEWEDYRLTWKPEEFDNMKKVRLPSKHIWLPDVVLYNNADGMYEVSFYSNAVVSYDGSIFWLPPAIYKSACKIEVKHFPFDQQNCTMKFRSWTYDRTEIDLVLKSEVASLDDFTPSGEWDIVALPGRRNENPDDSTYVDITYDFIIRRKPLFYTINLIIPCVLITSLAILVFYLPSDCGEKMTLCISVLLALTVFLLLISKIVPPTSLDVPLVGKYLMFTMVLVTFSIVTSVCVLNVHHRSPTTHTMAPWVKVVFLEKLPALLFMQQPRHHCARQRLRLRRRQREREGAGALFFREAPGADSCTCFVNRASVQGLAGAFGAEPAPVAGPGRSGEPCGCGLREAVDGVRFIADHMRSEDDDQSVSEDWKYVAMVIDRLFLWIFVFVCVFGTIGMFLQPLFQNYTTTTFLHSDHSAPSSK
T3 sequence (P43681 whole entry): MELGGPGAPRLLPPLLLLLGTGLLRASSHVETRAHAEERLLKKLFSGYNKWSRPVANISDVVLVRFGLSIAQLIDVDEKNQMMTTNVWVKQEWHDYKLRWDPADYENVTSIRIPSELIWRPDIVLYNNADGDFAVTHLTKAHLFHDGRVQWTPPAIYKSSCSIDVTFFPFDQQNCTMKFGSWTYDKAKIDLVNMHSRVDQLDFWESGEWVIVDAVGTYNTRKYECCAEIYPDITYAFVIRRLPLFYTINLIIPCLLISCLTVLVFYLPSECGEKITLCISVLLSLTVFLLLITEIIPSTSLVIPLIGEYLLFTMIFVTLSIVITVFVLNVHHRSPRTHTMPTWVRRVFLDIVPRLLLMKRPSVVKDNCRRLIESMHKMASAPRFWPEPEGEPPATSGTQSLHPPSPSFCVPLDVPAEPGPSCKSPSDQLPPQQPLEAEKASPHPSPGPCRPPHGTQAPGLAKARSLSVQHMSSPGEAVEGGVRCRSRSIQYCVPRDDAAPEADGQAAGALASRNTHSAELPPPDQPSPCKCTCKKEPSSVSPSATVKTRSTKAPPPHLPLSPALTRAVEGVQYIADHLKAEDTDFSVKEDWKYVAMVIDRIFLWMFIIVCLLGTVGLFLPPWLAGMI
The target in test [5] is T2, Neuronal acetylcholine receptor subunit alpha-7. In words: Antagonist activity at alpha7 nAChRs (unknown origin) assessed as inhibition constant.
The target of another test is Mu-type opioid receptor (Bos taurus, UniProt P79350). In words: Displacement of [3H]-DAGO from calf cortex MOR receptor assessed as inhibition constant. It is filed as tissue-based. (In general: Loss of bound radioactivity is the signal in a displacement assay; it reports binding, not function.)
Sequence of Mu-type opioid receptor (P79350 whole entry): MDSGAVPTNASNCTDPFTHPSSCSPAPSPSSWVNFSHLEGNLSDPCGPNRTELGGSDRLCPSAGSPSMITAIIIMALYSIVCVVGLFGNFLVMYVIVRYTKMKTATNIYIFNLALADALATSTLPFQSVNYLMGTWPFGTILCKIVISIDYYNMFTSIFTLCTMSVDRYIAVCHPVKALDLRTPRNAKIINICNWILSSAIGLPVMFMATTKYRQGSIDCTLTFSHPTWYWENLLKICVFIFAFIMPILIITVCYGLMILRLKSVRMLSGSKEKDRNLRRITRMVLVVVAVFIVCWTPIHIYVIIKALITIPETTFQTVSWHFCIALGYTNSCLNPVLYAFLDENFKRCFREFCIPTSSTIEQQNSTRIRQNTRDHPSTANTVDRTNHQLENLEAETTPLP
Test [6] in a line: Displacement of [3H]-DPDPE from calf caudate nucleus DOR receptor assessed as inhibition constant. It is filed as tissue-based, Bos taurus.
Test [7] is described as follows: Displacement of [3H]-GR-65,630 from 5-HT3 receptor in mouse NG-108 cells assessed as inhibition constant. The class given is cell-based. As to conditions: ng-108 cell.
Test [8] deals with T4, Muscarinic acetylcholine receptor M1 (Bos taurus, UniProt Q8WMX0).
T4 sequence (Q8WMX0 whole entry): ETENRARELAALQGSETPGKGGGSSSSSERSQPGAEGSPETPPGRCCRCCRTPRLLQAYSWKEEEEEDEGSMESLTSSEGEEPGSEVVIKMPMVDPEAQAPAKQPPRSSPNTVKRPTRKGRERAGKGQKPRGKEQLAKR
In words: Displacement of [3H]-pirenzepine from calf cortex Muscarinic M1 receptor assessed as inhibition constant. It is filed as tissue-based.

In test [9] the target is Sigma intracellular receptor 2 (Bos taurus, UniProt Q3MHW7). In words: Displacement of [3H]-DTG from calf hippocampus sigma 2 receptor assessed as inhibition constant. It is filed as tissue-based.
Sequence of Sigma intracellular receptor 2 (Q3MHW7 whole entry): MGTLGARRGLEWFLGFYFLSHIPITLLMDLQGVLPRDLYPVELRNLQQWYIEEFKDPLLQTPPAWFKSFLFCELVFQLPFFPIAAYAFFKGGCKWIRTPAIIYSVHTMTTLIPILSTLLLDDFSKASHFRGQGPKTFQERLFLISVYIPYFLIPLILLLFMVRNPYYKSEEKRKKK
Test [10] is described as follows: Displacement of [3H]-BTX-B from bovine cortex sodium channel assessed as inhibition constant. It is filed as tissue-based, Bos taurus.
The target of test [11] is T1, Neuronal acetylcholine receptor; alpha3/beta4. In words: Antagonist activity at recombinant alpha3beta4 nAChR in HEK293 cells by voltage-clamp based electrophysiological method. The class given is cell-based.
Test [12] has as its target T3, Neuronal acetylcholine receptor; alpha4/beta2. In words: Antagonist activity at alpha4beta2 nAChR in HEK293 cells by voltage-clamp based electrophysiological method. It is filed as cell-based.
Test [13] addresses T1, Neuronal acetylcholine receptor; alpha3/beta4. In words: Antagonist activity at human alpha3beta4 nAChRs expressed in HEK293 cells assessed as inhibition of (+/-)-epibatidine-induced Ca+2 influx incubated for 5 mins by FLIPR analysis. The class given is cell-based.
For test [14] the target is unchanged. In words: Displacement of [3H]imipramine from human alpha3beta4 nAChRs expressed in HEK293 cells assessed as inhibition constant incubated for 2 hrs by scintillation counter analysis. It is filed as cell-based.
The target in test [15] is T3, Neuronal acetylcholine receptor; alpha4/beta2. In words: Inhibition of nAChR alpha4beta2 receptor (unknown origin). It is filed as protein-complex assay.
Test [16] addresses T2, Neuronal acetylcholine receptor subunit alpha-7. In words: Inhibition of nAChR alpha7 receptor (unknown origin) assessed as inhibition of calcium flux.

T2 sequence (P36544 whole entry): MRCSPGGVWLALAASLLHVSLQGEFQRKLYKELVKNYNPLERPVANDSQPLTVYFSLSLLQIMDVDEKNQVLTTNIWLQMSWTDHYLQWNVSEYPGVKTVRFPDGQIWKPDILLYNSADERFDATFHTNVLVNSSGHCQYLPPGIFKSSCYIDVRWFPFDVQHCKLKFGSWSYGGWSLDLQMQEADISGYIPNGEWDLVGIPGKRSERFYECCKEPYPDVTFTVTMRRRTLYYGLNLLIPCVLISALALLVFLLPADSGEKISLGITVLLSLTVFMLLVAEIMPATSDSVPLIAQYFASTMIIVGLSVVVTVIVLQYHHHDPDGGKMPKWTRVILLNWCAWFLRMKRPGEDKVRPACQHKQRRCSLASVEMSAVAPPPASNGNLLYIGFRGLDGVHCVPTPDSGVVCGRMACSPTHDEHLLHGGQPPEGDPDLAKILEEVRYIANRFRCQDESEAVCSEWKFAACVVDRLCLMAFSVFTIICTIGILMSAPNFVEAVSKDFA
T1 sequence (P30926 whole entry): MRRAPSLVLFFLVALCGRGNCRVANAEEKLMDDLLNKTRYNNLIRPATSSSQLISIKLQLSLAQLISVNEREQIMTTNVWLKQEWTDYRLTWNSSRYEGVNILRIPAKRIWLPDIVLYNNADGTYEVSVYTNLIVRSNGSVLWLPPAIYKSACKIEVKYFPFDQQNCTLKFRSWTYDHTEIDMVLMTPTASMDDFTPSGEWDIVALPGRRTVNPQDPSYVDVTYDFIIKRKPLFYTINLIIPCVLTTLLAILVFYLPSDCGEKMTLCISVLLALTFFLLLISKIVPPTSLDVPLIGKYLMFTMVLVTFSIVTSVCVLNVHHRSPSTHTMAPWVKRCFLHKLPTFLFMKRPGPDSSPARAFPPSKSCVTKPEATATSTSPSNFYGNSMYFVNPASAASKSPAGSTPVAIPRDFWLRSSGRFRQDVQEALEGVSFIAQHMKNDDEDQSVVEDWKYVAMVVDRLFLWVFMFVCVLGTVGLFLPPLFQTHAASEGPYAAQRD
T1 sequence (P32297 whole entry): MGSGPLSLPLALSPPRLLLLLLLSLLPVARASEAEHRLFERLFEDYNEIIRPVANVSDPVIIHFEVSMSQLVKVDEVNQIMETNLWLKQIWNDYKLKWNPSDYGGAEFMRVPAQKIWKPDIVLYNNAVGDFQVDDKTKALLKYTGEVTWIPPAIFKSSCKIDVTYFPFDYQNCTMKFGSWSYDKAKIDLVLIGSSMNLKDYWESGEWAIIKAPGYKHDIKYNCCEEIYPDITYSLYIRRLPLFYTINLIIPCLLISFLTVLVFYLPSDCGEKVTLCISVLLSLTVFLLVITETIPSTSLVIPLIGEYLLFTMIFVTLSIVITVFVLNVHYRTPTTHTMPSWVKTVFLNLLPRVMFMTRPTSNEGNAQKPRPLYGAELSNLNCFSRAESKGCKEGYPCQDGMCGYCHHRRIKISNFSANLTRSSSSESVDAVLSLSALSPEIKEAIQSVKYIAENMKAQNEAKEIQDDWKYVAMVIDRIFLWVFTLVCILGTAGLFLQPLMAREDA

As a reminder, the IC50 is the concentration that gives 50% inhibition. On to `CC[C@H](C)[C@@H]1NC(=O)[C@H](CC(N)=O)NC(=O)[C@@H]2CCCN2C(=O)[C@H](CC(N)=O)NC(=O)[C@H](CC(C)C)NC(=O)[C@H](C(C)C)NC(=O)[C@H](Cc2ccccc2)NC(=O)[C@@H]2CSSC[C@H](NC(=O)CNC(=O)[C@@H](N)CO)C(=O)N[C@@H](CSSC[C@@H](C(=O)O)NC1=O)C(=O)N[C@@H](CO)C(=O)N[C@@H](CC(N)=O)C(=O)N1CCC[C@H]1C(=O)N[C@@H](C)C(=O)N2` (H-SGCCSNPACFVLNPNIC-OH; disulfide 3-9, 4-17), for which the IC50 in test [1] was 410 nM; in [2], above 100000 nM.
On the same counts, the results for `CC[C@H](C)[C@@H]1NC(=O)[C@H](CC(N)=O)NC(=O)[C@@H]2CCCN2C(=O)[C@H](CC(N)=O)NC(=O)[C@H](CC(N)=O)NC(=O)[C@H](C(C)C)NC(=O)[C@H](CCSC)NC(=O)[C@@H]2CSSC[C@H](NC(=O)CNC(=O)[C@@H](N)CO)C(=O)N[C@@H](CSSC[C@@H](C(=O)O)NC1=O)C(=O)N[C@@H](CO)C(=O)N[C@@H](CC(N)=O)C(=O)N1CCC[C@H]1C(=O)N[C@@H](C)C(=O)N2` (H-SGCCSNPACMVNNPNIC-OH; disulfide 3-9, 4-17) are 440 nM and 242 nM.
`CC[C@H](C)[C@@H]1NC(=O)[C@H](CC(N)=O)NC(=O)[C@@H]2CCCN2C(=O)[C@H](CC(N)=O)NC(=O)[C@H](CC(C)C)NC(=O)[C@H](C(C)C)NC(=O)[C@H](CCCNC(=N)N)NC(=O)[C@@H]2CSSC[C@H](NC(=O)CNC(=O)[C@@H](N)CO)C(=O)N[C@@H](CSSC[C@@H](C(=O)O)NC1=O)C(=O)N[C@@H](CO)C(=O)N[C@@H](CC(N)=O)C(=O)N1CCC[C@H]1C(=O)N[C@@H](C)C(=O)N2` (H-SGCCSNPACRVLNPNIC-OH; disulfide 3-9, 4-17): the IC50 in test [1] came out at 630 nM; in [2], 2570 nM.
With `CC[C@H](C)[C@@H]1NC(=O)[C@H](CC(N)=O)NC(=O)[C@@H]2CCCN2C(=O)[C@H](CC(N)=O)NC(=O)[C@H](CC(N)=O)NC(=O)[C@H](C(C)C)NC(=O)[C@H](CCCNC(=N)N)NC(=O)[C@@H]2CSSC[C@H](NC(=O)CNC(=O)[C@@H](N)CO)C(=O)N[C@@H](CSSC[C@@H](C(=O)O)NC1=O)C(=O)N[C@@H](CO)C(=O)N[C@@H](CC(N)=O)C(=O)N1CCC[C@H]1C(=O)N[C@@H](C)C(=O)N2` (H-SGCCSNPACRVNNPNIC-OH; disulfide 3-9, 4-17), in [3], the IC50 is above 10 nM.
In general, Ki refers to a dissociation constant, usually derived from enzyme kinetics or from competition with a known ligand. Regarding `CNC1(C)[C@H]2CC[C@H](C2)C1(C)C` (mixture of isomers), the Ki in test [4] worked out at 2500 nM; in test [5], 6900 nM.
On to `COCC[C@H]1C[C@H]2CN3CCc4c([nH]c5ccc(OC)cc45)[C@](C(=O)OC)(C2)[C@H]13` (racemic), for which the inhibition constant Ki was 1.1 nM at Mu-type opioid receptor; 3.5 nM in test [6]; 3.8 nM in test [7]; 32 nM in test [8]; 13 nM in test [9]; 6.4 nM in test [10]. In addition, the Ki in [14] was 400 nM. For the same molecule, the IC50 was 750 nM in test [11]; above 20000 nM in [12]; 1470 nM in test [13]; 6300 nM in test [15]; 34700 nM in test [16].
